Measured values: the NIST ThermoML archive (doi:10.1016/j.jct.2012.08.030)
± gives the expanded uncertainty stated by the source.

Legend:
[1] = 101.3 kPa, Liquid; for speed of sound: Sing-around technique in a fixed-path interferometer; for mass density: Vibrating tube method
[2] = refractive index (Na D-line) (dimensionless); conditions: 101.33 kPa, Liquid, Standard Abbe refractometry
[3] = xn = mol fraction of the nth substance listed; conditions: 101.3 kPa, Liquid, x2 = 0; for speed of sound: Sing-around technique in a fixed-path interferometer; for mass density: Vibrating tube method
[4] = refractive index (Na D-line) (dimensionless); xn = mol fraction of the nth substance listed; conditions: 101.3 kPa, Liquid, Standard Abbe refractometry, x2 = 0

CCCCn1cc[n+](C)c1.COS(=O)(=O)[O-] [1-butyl-3-methylimidazolium methyl sulfate]
Conditions | mass density, [1] [kg/m3] | refractive index, [2] | speed of sound, [1] [m/s]
298.15 K | 1212.06 ± 2.8 | 1.47824 ± 0.00068 | 1654.6 ± 3.1
303.15 K | 1208.7 ± 2.8 | 1.47704 ± 0.00068 | 1642.2 ± 3.1
308.15 K | 1205.35 ± 2.8 | 1.47577 ± 0.00068 | 1630 ± 3.1
313.15 K | 1202.01 ± 2.8 | 1.47443 ± 0.00068 | 1617.9 ± 3.1

CCCCO [butan-1-ol]
Conditions | mass density, [1] [kg/m3] | refractive index, [2] | speed of sound, [1] [m/s]
298.15 K | 805.93 ± 0.24 | 1.39747 ± 0.00037 | 1239.3 ± 1.2
303.15 K | 802.088 ± 0.24 | 1.39549 ± 0.00037 | 1222.9 ± 1.2
308.15 K | 798.214 ± 0.24 | 1.39342 ± 0.00037 | 1206.3 ± 1.2
313.15 K | 794.301 ± 0.24 | 1.39138 ± 0.00037 | 1189.7 ± 1.2

CCCCO [butan-1-ol] + CCCCn1cc[n+](C)c1.COS(=O)(=O)[O-]
Conditions | mass density, [3] [kg/m3] | refractive index, [4] | speed of sound, [3] [m/s]
298.15 K | 805.93 ± 0.24 | 1.39747 ± 0.00037 | 1239.3 ± 1.2
303.15 K | 802.088 ± 0.24 | 1.39549 ± 0.00037 | 1222.9 ± 1.2
308.15 K | 798.214 ± 0.24 | 1.39342 ± 0.00037 | 1206.3 ± 1.2
313.15 K | 794.301 ± 0.24 | 1.39138 ± 0.00037 | 1189.7 ± 1.2

CO [methanol]
Conditions | mass density, [1] [kg/m3] | refractive index, [2] | speed of sound, [1] [m/s]
298.15 K | 787.405 ± 0.12 | 1.3272 ± 0.00031 | 1104.3 ± 0.59
303.15 K | 782.688 ± 0.12 | 1.32552 ± 0.00031 | 1088.3 ± 0.59
308.15 K | 777.941 ± 0.12 | 1.32362 ± 0.00031 | 1072 ± 0.58
313.15 K | 773.168 ± 0.12 | 1.32171 ± 0.00031 | 1055.9 ± 0.58

CO [methanol] + CCCCn1cc[n+](C)c1.COS(=O)(=O)[O-]
Conditions | mass density, [3] [kg/m3] | refractive index, [4] | speed of sound, [3] [m/s]
298.15 K | 787.405 ± 0.12 | 1.3272 ± 0.00031 | 1104.3 ± 0.59
303.15 K | 782.688 ± 0.12 | 1.32552 ± 0.00031 | 1088.3 ± 0.59
308.15 K | 777.941 ± 0.12 | 1.32362 ± 0.00031 | 1072 ± 0.58
313.15 K | 773.168 ± 0.12 | 1.32171 ± 0.00031 | 1055.9 ± 0.58

CCCO [propan-1-ol]
Conditions | mass density, [1] [kg/m3] | refractive index, [2] | speed of sound, [1] [m/s]
298.15 K | 800.008 ± 0.14 | 1.38334 ± 0.00033 | 1205.9 ± 0.8
303.15 K | 795.97 ± 0.14 | 1.38131 ± 0.00033 | 1189.3 ± 0.8
308.15 K | 791.892 ± 0.14 | 1.37926 ± 0.00033 | 1172.4 ± 0.79
313.15 K | 787.772 ± 0.14 | 1.37722 ± 0.00033 | 1155.5 ± 0.79

CCCO [propan-1-ol] + CCCCn1cc[n+](C)c1.COS(=O)(=O)[O-]
Conditions | mass density, [3] [kg/m3] | refractive index, [4] | speed of sound, [3] [m/s]
298.15 K | 800.008 ± 0.14 | 1.38334 ± 0.00033 | 1205.9 ± 0.8
303.15 K | 795.97 ± 0.14 | 1.38131 ± 0.00033 | 1189.3 ± 0.8
308.15 K | 791.892 ± 0.14 | 1.37926 ± 0.00033 | 1172.4 ± 0.79
313.15 K | 787.772 ± 0.14 | 1.37722 ± 0.00033 | 1155.5 ± 0.79

CC(C)O [propan-2-ol]
Conditions | mass density, [1] [kg/m3] | refractive index, [2] | speed of sound, [1] [m/s]
298.15 K | 781.123 ± 0.15 | 1.37527 ± 0.00033 | 1138.7 ± 0.78
303.15 K | 776.845 ± 0.15 | 1.37314 ± 0.00033 | 1121.4 ± 0.78
308.15 K | 772.487 ± 0.15 | 1.37093 ± 0.00033 | 1103.9 ± 0.77
313.15 K | 768.053 ± 0.15 | 1.3687 ± 0.00033 | 1086.6 ± 0.77

CC(C)O [propan-2-ol] + CCCCn1cc[n+](C)c1.COS(=O)(=O)[O-]
Conditions | mass density, [3] [kg/m3] | refractive index, [4] | speed of sound, [3] [m/s]
298.15 K | 781.123 ± 0.15 | 1.37527 ± 0.00033 | 1138.7 ± 0.78
303.15 K | 776.845 ± 0.15 | 1.37314 ± 0.00033 | 1121.4 ± 0.78
308.15 K | 772.487 ± 0.15 | 1.37093 ± 0.00033 | 1103.9 ± 0.77
313.15 K | 768.053 ± 0.15 | 1.3687 ± 0.00033 | 1086.6 ± 0.77
